# Patent US6653081B2, “Methods for monitoring antiretroviral therapy and guiding therapeutic decision in the treatment of HIV/AIDS” (ViroLogic, Inc., priority 2000, dated 2003)
# Key:
# RTV-K103N/I135T = test: Phenotypic susceptibility assay, RTV-K103N/I135T; assay type: cell-based, HIV-1; conditions: site-directed K103N + I135T
# Excerpt: (§1) The resistance test vectors containing a functional luciferase gene cassette were constructed and host cells were transfected with the resistance test vector DNA. The resistant test vectors contained patient-derived reverse transcriptase and protease sequences that were either susceptible or resistant to the antiretroviral agents, such as nucleoside reverse transcriptase inhibitors, (NRTIs) non-nucleoside reverse transcriptase inhibitors […] protease inhibitors. The resistance test vector viral particles produced by transfecting the resistance test vector DNA into host cells, either in the presence or absence of PRIs, were used to infect target host cells grown either in the absence of NRTIs or NNRTIs, or in the presence of increasing concentrations of the drug. The amount of luciferase activity produced in infected target host cells in the presence of varying concentrations of drug was compared to the amount of luciferase produced in infected target host cells in the absence of drug. “Drug resistance” was measured as the amount of drug required to inhibit by 50% the luciferase activity detected in the absence of drug (inhibitory concentration 50%, IC50). The IC50 values were determined by plotting percent drug inhibition vs. log10 drug concentration. Stimulation of viral replication was measured as the percent increase in luciferase activity detected when infection occurs in the presence of drug as compared to in the absence of drug.
# (§2) Host cells were seeded in 10-cm-diameter dishes and were transfected several days after plating with resistance test vector plasmid DNA and the envelope expression vector. Transfections were performed using a calcium-phosphate precipitation procedure. The cell culture media containing the DNA precipitate was replaced with fresh medium, from one to 24 hours, after transfection. Cell culture media containing resistance test vector viral particles was harvested one to four days after transfection and was passed through a […] filter before being used to infect target host cells, or being stored at −80° C. HIV capsid protein (p24) levels in the harvested cell culture media were determined by an EIA method as described by the manufacturer (SAIC; Frederick, Md.). Before infection, target cells (293 and 293/T) were plated in cell culture media. Control infections were performed using cell culture media from mock transfections (no DNA) or transfections containing the resistance test vector plasmid DNA without the envelope expression plasmid. One to three or more days after infection, the media was removed and cell lysis buffer (Promega) was added to each well. Cell lysates were assayed for luciferase activity (FIG. 3). The inhibitory effect of the drug was determined using the following equation:
# (§3) % luciferase inhibition=1−(RLUluc[drug]÷RLUluc)×100
# (§4) where RLUluc [drug] is the Relative Light Unit of luciferase activity in infected cells in the presence of drug, and RLUluc is the Relative Light Unit of luciferase activity in infected cells in the absence of drug. IC50values were obtained from the sigmoidal curves that were generated from the data by plotting the percent inhibition of luciferase activity vs. the log10 drug concentration. The percent luciferase stimulation is the negative of the % inhibition calculated using the formula above.
# A resistance test vector containing two mutations, K103N and I135T (RTV-K103N/I135T) was constructed and tested in the phenotypic assay described earlier. The results were compared to those determined using a genetically defined resistance test vector that was wild type at position 103 and 135. We determined the pattern of phenotypic susceptibility to the NNRTIs, delavirdine, nevirapine and efavirenz, in RTV-K103N/I135T.
# RTV-1033-3 = test: Phenotypic susceptibility assay, RTV-1033-3; assay type: cell-based, HIV; conditions: single clone from the RTV-1033 pool
# Excerpt: as §1, §2, §3, §4
# A single clone (RTV-1033-3) was obtained from the patient-derived RTV pool that had mutations and phenotypic patterns of NNRTI susceptibility and drug-dependent stimulation of viral replication characteristic of the RTV-1033 pool. The RTV-1033-3 had the following mutations present in the revere transcriptase: V35I, D67N, T69D, K70R, V106A, D123G, V189L, T200A, I202T, H208Y, R211K, T215F, D218E, K219Q, H221Y, L228H, L283I, R284K, T286A, V293I and E297K.
# RTV-010829/270I = test: Phenotypic susceptibility assay, RTV-010829/270I; assay type: cell-based, HIV; conditions: RTV-010829 with I270M reverted
# Excerpt: as §1, §2, §3, §4
# A resistance test vector containing all of the mutations present in RTV-010829 except for the V245E mutation (RTV-010829/245V) was constructed and tested using the phenotypic assay described earlier. The results were compared to those determined using the parent RTV-010829. We determined the pattern of phenotypic susceptibility to the NNRTIs, delavirdine, nevirapine and efavirenz, in the reverted vector RTV-010829/245V. […] A resistance test vector containing all of the mutations present in RTV-010829 except for the I270M (RTV-010829/270I) was constructed and tested using the phenotypic assay described earlier. […]
# RTV-013522/270I = test: Phenotypic susceptibility assay, RTV-013522/270I; assay type: cell-based, HIV; conditions: RTV-013522 with I270S reverted
# Excerpt: as §1, §2, §3, §4
# (§5) A resistance test vector containing all of the mutations present in […] except for the I270S (RTV-013522/270I) was constructed and tested using the phenotypic assay described earlier. The results were compared to those determined using the parent RTV-013522. We determined the pattern of phenotypic susceptibility to the NNRTIs, delavirdine, nevirapine and efavirenz, in the reverted vector RTV-013522/270I. […] In this patient sample the correlation of drug-dependent stimulation of viral replication with the mutation at I270S is very striking. […]
# RTV-309 = test: Phenotypic susceptibility assay, RTV-309; assay type: cell-based, HIV; conditions: patient 1033 sample before any NNRTI
# Excerpt: The resistance test vectors containing a functional luciferase gene cassette were constructed and host cells were transfected with the resistance test vector DNA. The resistant test vectors contained patient-derived reverse transcriptase and protease sequences that were either susceptible or resistant to the antiretroviral agents, such as nucleoside reverse transcriptase inhibitors, (NRTIs) non-nucleoside reverse transcriptase inhibitors […] protease inhibitors. The resistance test vector viral particles produced by transfecting the resistance test vector DNA into host cells, either in the presence or absence of PRIs, were used to infect target host cells grown either in the absence of NRTIs or NNRTIs, or in the presence of increasing concentrations of the drug. The amount of luciferase activity produced in infected target host cells in the presence of varying concentrations of drug was compared to the amount of luciferase produced in infected target host cells in the absence of drug. […] The IC50 values were determined by plotting percent drug inhibition vs. log10 drug concentration. Stimulation of viral replication was measured as the percent increase in luciferase activity detected when infection occurs in the presence of drug as compared to in the absence of drug.
# Host cells were seeded in 10-cm-diameter dishes and were transfected several days after plating with resistance test vector plasmid DNA and the envelope expression vector. […] HIV capsid protein (p24) levels in the harvested cell culture media were determined by an EIA method as described by the manufacturer (SAIC; Frederick, Md.). […] The inhibitory effect of the drug was determined using the following equation: […]
# where RLUluc [drug] is the Relative Light Unit of luciferase activity in infected cells in the presence of drug, and RLUluc is the Relative Light Unit of luciferase activity in infected cells in the absence of drug. […] The percent luciferase stimulation is the negative of the % inhibition calculated using the formula above. […]
# RTV-I270S = test: Phenotypic susceptibility assay, RTV-I270S; assay type: cell-based, HIV-1; conditions: site-directed I270S alone
# Excerpt: as §1, §2, §3, §4, §5
Compound,drug-dependent stimulation of viral replication (RTV-K103N/I135T),reductions in susceptibility compared to wild type control RTV (RTV-K103N/I135T) [fold],drug-dependent stimulation of viral replication (RTV-1033-3) [%],reductions in susceptibility (RTV-1033-3) [fold],drug-dependent stimulation of viral replication (RTV-010829/270I) [%],reductions in susceptibility compared to wild type control RTV (RTV-010829/270I) [fold],drug-dependent stimulation of viral replication (RTV-013522/270I),reductions in susceptibility compared to wild type control RTV (RTV-013522/270I) [fold],reduction in susceptibility (RTV-309),drug-dependent stimulation of viral replication (RTV-I270S) [%],reductions in susceptibility compared to wild type control RTV (RTV-I270S) [fold]
CC(C)Nc1cccnc1N1CCN(C(=O)c2cc3cc(NS(C)(=O)=O)ccc3[nH]2)CC1 [delavirdine],no drug-dependent stimulation,121,190,27,~40,247,no longer exhibiting negative inhibition,40,wild type pattern of susceptibility,~60,13
O=C1Nc2ccc(Cl)cc2[C@@](C#CC2CC2)(C(F)(F)F)O1 [efavirenz],no drug-dependent stimulation,80,180,> 450,~20,145,no longer exhibiting negative inhibition,8,wild type pattern of susceptibility,~40,4
Cc1ccnc2c1NC(=O)c1cccnc1N2C1CC1 [nevirapine],no drug-dependent stimulation,171,200,> 600,~30,341,no longer exhibiting negative inhibition,14,3 fold,~60,15
